Test system: HeLa
Assay: Cytotoxicity against human HeLa cells
Type: functional, cell-based

Row | SMILES | IC50
1 | C[C@@]12CC[C@@H]3[C@]4(CCC[C@]3(C)C(=O)OC4)[C@H]1CC[C@]1(C)Oc3ccc(O)cc3C[C@@H]21 [STRONGYLOPHORIN 2] | > 100 µM
2 | C[C@]12CCC[C@](C)(C(=O)O)[C@@H]1CC[C@]1(C)[C@@H]2CC[C@]2(C)Oc3ccc(O)cc3C[C@@H]12 [Strongylophorin-3] | 45.2 µM
3 | C[C@]12CCC[C@](C)(C=O)[C@@H]1CC[C@]1(C)[C@@H]2CC[C@]2(C)Oc3ccc(O)cc3C[C@@H]12 [Strongylophorin-4] | 50.5 µM
4 | CC1(C)CCC[C@]2(C)[C@H]3CC[C@]4(C)Oc5ccc(O)cc5C[C@H]4[C@]3(C)CC[C@@H]12 [Strongylophorin-22] | 26.6 µM
5 | CC1(C)CCC[C@@]2(CO)[C@H]1CC[C@]1(C)[C@@H]2CC[C@]2(C)Oc3ccc(O)cc3C[C@@H]12 [Strongylophorin-23] | 62 µM
6 | COc1ccc2c(c1)C[C@H]1[C@]3(C)CC[C@@H]4[C@](C)(CCC[C@]4(C)C(=O)O)[C@H]3CC[C@]1(C)O2 [Strongylophorine-1] | 49.1 µM
7 | CC1(C)CCC[C@@]2(C=O)[C@H]1CC[C@]1(C)[C@@H]2CC[C@]2(C)Oc3ccc(O)cc3C[C@@H]12 [Strongylophorine-24] | > 100 µM
